# Results reported in patent US20250186438A1, “TREATMENT OF CLEAR CELL RENAL CELL CARCINOMA” (RACE ONCOLOGY LTD, priority 2022, published 2025).
# Structures can show the parent of a compound that is named as a salt. Where two headings read alike, the source gives them in different places.
# Assays:
# [1] = tested on: 786-O cells; assay: Resazurin cell viability assay, drug combinations with synergy analysis; format: cell-based, Human; conditions: 786-0 cell line; each drug in combination with zantrene; FIG. 1-3
# Protocol: (§1) Cell viability was determined using a resazurin metabolic activity assay.
# (§2) Resazurin is metabolised into the red-fluorescent resorufin by metabolically active cells. […] Graphpad Prism 9 software was used to generate graphs. Drug IC50 values were determined by cubic spline-lowess regression analysis using Prism 9. At least three independent replicates were performed for each cell line and each drug combination, and data is represented as mean±standard error of the mean (SEM). The culture conditions for each cell line are described below.
# (§3) Detail on each of the methods is provided below.
# It estimates the expected additive effect of two drugs using the fractional product of the effect of each drug alone, ie:
# An observed Fa(Drug1+Drug2) value greater than the expected Fa(Drug1+Drug2) value result indicates synergy, whereas an observed Fa(Drug1+Drug2) lower than the expected value indicates antagonism.
# (§4) Using the Henderson-Hasselbalch, Michaelis-Menten, Scatchard, and Hill equations, Chou and Talaly derived the “median-effect” equation to model the median effect dose and sigmoidicity of the dose-response curve, using the inputted doses and corresponding dose-effects. Chou and Talalay also coined the term “CombinationIndex (CI)” to evaluate the degree of synergy between two compounds, defined as: […]
# (§5) Within SynergyFinder the Bliss model was used. This model quantifies the degree of synergy as the multiplicative effect of single drugs as if they acted independently. This independence model assumes a stochastic process in which two drugs elicit their effects independently, and the expected combination effect can be calculated based on the probability of independent events.
# [2] = tested on: RCC4 EV cells (VHL(−) mutant); assay: Resazurin cell viability assay (combination synergy analysis; cytotoxic IC50); conditions: Homo sapiens, RCC4, 72 h, read-out: Cytotoxic IC50
# Protocol: as §1, §2, §3, §4, §5
# [3] = tested on: RCC4 EV cells (VHL(−) mutant); assay: Clonogenicity assay (colony formation); format: cell-based; conditions: Homo sapiens, ccRCC, VHL status Mut, 96 h drug then 96 h drug-free, read-out: Clonogenic IC50
# Protocol: (§6) Clonogenicity assays—Clonogenicity assays were used to determine the colony-forming ability of cells treated with Zantrene. RCC4EV and RCC4 VHL Cells were seeded into 6-well plates at 1000 cells/well and allowed to adhere for 24 h. […] Drug-containing media was removed and replaced with freshmedia (without drug) and cultured for an additional 96 h to allow the formation of cell colonies. At endpoint, media was removed from wells and cells washed with cold PBS twice. Cells were fixed with ice-cold methanol for 10 minutes on ice followed immediately by staining with crystal violet solution (0.5% crystal violet, 25% methanol in PBS) at room temperature. Excess crystal violet solution was washed away and pictures of plates capturedon a ChemiDoc MP Imaging System (Bio-Rad). Images were analysed using the ColonyArea plugin [Guzman C. et al (2014), “ColonyArea: an ImageJ plugin to automatically quantify colony formation in clonogenic assays”, PLoS One, 9(3):e92444] for ImageJ [Schneider C. A. et at (2012), “NIH Image to ImageJ: 25 years of image analysis”, Nat Methods 9(7):671-675] and the percent area of the well filled by colonies determined and presented as % of untreated cells using Prism 9. Four independent replicates were performed for each cell line and data is represented as mean±SEM.
# [4] = tested on: RCC4 VHL cells (VHL rescue line); assay: Clonogenicity assay (colony formation); format: cell-based; conditions: Homo sapiens, ccRCC, VHL status Mut + WT, 96 h drug then 96 h drug-free, read-out: Clonogenic IC50
# Protocol: as §6
# [5] = cited from earlier work
# [6] = 5-day schedule of 60 min infusions
# [7] = another trial, doses of 80-250 mg/m2
# [8] = patients, 90 min infusion at 260 mg/m2, biphasic elimination
# [9] = patients, 90 min infusion at 260 mg/m2
# [10] = single dose study, triphasic elimination, first of three
# [11] = single dose study, triphasic elimination, second of three
compound,measurement,setting,value
COc1cc2nccc(Oc3ccc(NC(=O)NC4CC4)c(Cl)c3)c2cc1C(N)=O [lenvatinib],"Combination effect with zantrene, method of Webb analysis",[1],strongest synergy
CO[C@H]1C[C@@H]2CC[C@@H](C)[C@@](O)(O2)C(=O)C(=O)N2CCCC[C@H]2C(=O)O[C@H]([C@H](C)C[C@@H]2CC[C@@H](OCCO)[C@H](OC)C2)CC(=O)[C@H](C)/C=C(\C)[C@@H](O)[C@@H](OC)C(=O)[C@H](C)C[C@H](C)/C=C/C=C/C=C/1C [everolimus],"Combination effect with zantrene, method of Webb analysis",[1],Synergy
CNC(=O)c1cc(Oc2ccc(NC(=O)Nc3ccc(Cl)c(C(F)(F)F)c3)cc2)ccn1 [sorafenib],"Combination effect with zantrene, method of Webb analysis",[1],Synergy
"C(=NNC1=NCCN1)c1c2ccccc2c(C=NNC2=NCCN2)c2ccccc12 [bisantrene, 9,10-anthracenedicarboxaldehyde bis[(4,5 dihydro-1H-imidazo-2-yl)hydrazine]dihydrochloride]",IC50,[2],0.907 µM
same,IC50,[3],0.167 µM
same,IC50,[4],0.483 µM
same,Dose excreted in the urine,[5]; [6],7.1%
same,t½ α,[5]; [6],0.9 h
same,t½ β,[5]; [6],9.7 h
same,Plasma concentration,"[5]; 72 h infusion study, dose of 56 mg/m2",12 ± 6 ng/mL
same,Plasma concentration,"[5]; 72 h infusion study, dose of 260 mg/m2",55 ± 8 ng/mL
same,Plasma clearance,[5]; 72 h infusion study,1306±179 mL/min/m2
same,Calculated volume of distribution,[5]; [7],42.1 ± 5.9 L/kg
same,Clearance,[5]; [7],17.425 ± 0.85 mL/min/kg
same,Initial half-life,[5]; [7],0.6 h
same,Terminal half-life,[5]; [7],24.7 h
same,Administered dose excreted unchanged in the urine,"[5]; in 24 h, 90 min infusion at 260 mg/m2",11.3%
same,Urinary excretion of the dose,"[5]; in 24 h, 72 h infusion study",4.6%
same,Volume of distribution,"[5]; one report, interpreted as tissue sequestration with depot effect",687 L/m2
same,Administered dose found in the urine,"[5]; over 96 h, doses of 80-250 mg/m2",3.4±1.1%
same,Initial half-life,[5]; [8],1.08 ± 0.25 h
same,Terminal half-life,[5]; [8],19.03 ± 3.77 h
same,Plasma clearance,[5]; [9],735 mL/min/m2
same,Steady state volume of distribution (Vdss),[5]; [9],1845 L/m2
same,t½ α,[5]; [10],0.0573 h
same,t½ β,[5]; [10],1.33 h
same,t½ γ,[5]; [10],26.13 h
same,t½ α,[5]; [11],0.05 h
same,t½ β,[5]; [11],1 h
same,t½ γ,[5]; [11],8 h
